Assay results reported in paper PMC4756048 (Clinical Pharmacokinetics, 2015).
Where two headings read alike, the source gives them in different places.

How the values were obtained:
CYP1A2 = conditions: caffeine; cited from earlier work
CYP3A (intestinal) = conditions: cited from earlier work
CYP3A [1] = conditions: in vitro; cited from earlier work
OATP1B3 [2] = conditions: in vitro; data on file; cited from earlier work
BCRP = conditions: in vitro; cited from earlier work
cathepsin A = molecular target: T1, cathepsin A (Homo sapiens, UniProt P10619); test: In vitro cathepsin A inhibition; format: biochemical; conditions: data on file
T1 sequence (P10619 29-480): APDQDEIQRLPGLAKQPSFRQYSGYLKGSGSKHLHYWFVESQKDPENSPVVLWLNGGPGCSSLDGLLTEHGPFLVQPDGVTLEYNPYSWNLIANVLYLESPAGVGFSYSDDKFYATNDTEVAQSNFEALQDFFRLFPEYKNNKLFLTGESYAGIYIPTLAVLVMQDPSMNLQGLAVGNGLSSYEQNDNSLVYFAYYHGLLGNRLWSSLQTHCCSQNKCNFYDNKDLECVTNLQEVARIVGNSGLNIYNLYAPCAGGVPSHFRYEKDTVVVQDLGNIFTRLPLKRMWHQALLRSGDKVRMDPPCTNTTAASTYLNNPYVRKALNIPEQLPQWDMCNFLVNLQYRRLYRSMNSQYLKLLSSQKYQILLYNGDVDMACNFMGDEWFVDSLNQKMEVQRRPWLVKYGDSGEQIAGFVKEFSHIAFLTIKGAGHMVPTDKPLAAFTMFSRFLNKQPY

MRP2 [3] = conditions: in vitro; cited from earlier work
[4] = cited from earlier work
CYP2A6 = conditions: in vitro; cited from earlier work
CYP2C8 = conditions: in vitro; cited from earlier work
MRP2 [5] = conditions: in vitro; data on file; cited from earlier work
[6] = format: in vivo, human; conditions: data on file
[7] = test system: bile salt export pump (BSEP); conditions: in vitro; cited from earlier work
plasma proteins = conditions: largely to albumin; cited from earlier work
OATP1B3 [8] = conditions: in vitro; cited from earlier work
CYP3A [9] = conditions: in vitro; cited from earlier work; remark: listed apart in the source
[10] = molecular target: T2, sodium taurocholate cotransporting polypeptide (NTCP) (Homo sapiens, UniProt Q14973); test: In vitro transporter inhibition; format: in vitro ADME; conditions: data on file
T2 sequence (Q14973 1-349): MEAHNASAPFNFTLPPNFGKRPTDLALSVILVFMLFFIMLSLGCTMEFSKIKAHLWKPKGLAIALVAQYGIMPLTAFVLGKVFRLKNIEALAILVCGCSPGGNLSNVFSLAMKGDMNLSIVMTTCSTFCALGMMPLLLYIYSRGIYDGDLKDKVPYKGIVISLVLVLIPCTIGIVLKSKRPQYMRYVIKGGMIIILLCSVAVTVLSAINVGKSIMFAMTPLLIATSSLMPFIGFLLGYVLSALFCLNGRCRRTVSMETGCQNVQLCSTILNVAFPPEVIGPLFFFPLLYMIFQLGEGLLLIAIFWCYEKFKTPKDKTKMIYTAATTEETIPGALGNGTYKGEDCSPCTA

CYP2C19 = conditions: in vitro; cited from earlier work
OATP1B1 [11] = conditions: in vitro; cited from earlier work
P-gp [12] = conditions: in vitro; data on file; cited from earlier work
[13] = cited from earlier work; remark: listed apart in the source
P-gp [14] = conditions: in vitro; cited from earlier work
[15] = test system: breast cancer resistance protein (BCRP); conditions: in vitro; data on file; cited from earlier work
CYP2D6 = conditions: in vitro; cited from earlier work
OATP1B1 [16] = conditions: in vitro; cited from earlier work; remark: listed apart in the source
[17] = test system: CatA and carboxylesterase (CES) 1; conditions: cited from earlier work
[18] = oral midazolam 0.075 mg/kg, simeprevir 150 mg, fed, 16 healthy subjects, least squares mean ratio (90 % CI)
[19] = simeprevir 150 mg once daily + erythromycin 500 mg three times daily, days 1–7, fed, 24 healthy subjects
[20] = simeprevir 200 mg once daily + ritonavir 100 mg twice daily, fed, 12 healthy male subjects
[21] = interim analysis, simeprevir 150 mg once daily
[22] = interim analysis, simeprevir 150 mg once daily, vs historical data on simeprevir alone
[23] = vs subjects with normal renal function

In the case of `Cn1c(=O)c2c(ncn2C)n(C)c1=O` [Caffeine, caffeine], the “increase in exposure with coadministration of simeprevir” value (CYP1A2) is listed as 12%.
In the case of `Cc1ncc2n1-c1ccc(Cl)cc1C(c1ccccc1F)=NC2` [Midazolam, midazolam], the “AUClast ratio of probe with vs without simeprevir” value (CYP3A (intestinal); [18]) is given as 1.45 (1.35–1.57), the “Cmax ratio of probe with vs without simeprevir” value (CYP3A (intestinal); [18]) is given as 1.31 (1.19–1.45) and the “increase in exposure with coadministration of simeprevir” value (CYP3A (intestinal); oral midazolam) is given as 31%.
For `COc1ccc2c(O[C@@H]3C[C@H]4C(=O)N[C@]5(C(=O)NS(=O)(=O)C6CC6)C[C@H]5/C=C\CCCCN(C)C(=O)[C@@H]4C3)cc(-c3nc(C(C)C)cs3)nc2c1C` [simeprevir], the “substrate of CYP3A” value (CYP3A [1]) is given as “substrate”, the “inhibition of OATP1B3” value (OATP1B3 [2]) is given as “inhibitor” and the “inhibition of BCRP” value (BCRP) is given as “inhibitor”. For the same compound, the “inhibition of cathepsin A” value (cathepsin A) was “no clinically relevant inhibition”, the “inhibition of MRP2” value (MRP2 [3]) was “inhibitor” and the “fold increase in mean AUC24h of simeprevir with erythromycin” value [4, 19] was 7.47 fold. The “fold increase in mean Cmax of simeprevir with erythromycin” value [4, 19] was 4.53 fold, the “fold increase in mean Cmin of simeprevir with erythromycin” value [4, 19] was 12.74 fold and the “fold increase in AUC24h of simeprevir with ritonavir, multiple doses” value [4, 20] was 7.18 fold. The “fold increase in Cmax of simeprevir with ritonavir, multiple doses” value [4, 20] was 4.70 fold, the “fold increase in Cmin of simeprevir with ritonavir, multiple doses” value [4, 20] was 14.35 fold and the “inhibition of CYP2A6” value (CYP2A6) was “moderate inhibitor”. For the same compound, the “inhibition of CYP2C8” value (CYP2C8) was “moderate inhibitor”, the “substrate of MRP2” value (MRP2 [5]) was “substrate” and the “AUC24h of simeprevir, historical data in the absence of cyclosporine” value [6] was 45,202 ng·h/mL. The “Cmax of simeprevir, historical data in the absence of cyclosporine” value [6] was 3235 ng/mL, the “AUC24h of simeprevir in subjects receiving cyclosporine” value ([6]; day 14, simeprevir 150 mg once daily) was 262,618 ng·h/mL and the “Cmax of simeprevir in subjects receiving cyclosporine” value ([6]; day 14, simeprevir 150 mg once daily, n = 9) was 15,321 ng/mL. For the same compound, the “AUC24h of simeprevir in subjects receiving tacrolimus” value [6, 21] was 83,808 ng·h/mL, the “Cmax of simeprevir in subjects receiving tacrolimus” value [6, 21] was 5780 ng/mL and the “increase in AUC24h of simeprevir with tacrolimus” value [6, 22] was 85%. The “increase in Cmax of simeprevir with tacrolimus” value [6, 22] was 79%, the “inhibition of BSEP” value [7] was “inhibitor” and the “bound to plasma proteins” value (plasma proteins) was greater than 99.9%. The “hepatic uptake by OATP1B3” value (OATP1B3 [8]) was “mediate hepatic uptake”, the “inhibition of CYP3A” value (CYP3A [9]) was “weak inhibitor” and the “inhibition of NTCP” value [10] was “inhibitor”. The “inhibition of CYP2C19” value (CYP2C19) was “weak inhibitor”, the “inhibition of OATP1B1” value (OATP1B1 [11]) was “inhibitor” and the “substrate of P-gp” value (P-gp [12]) was “substrate”. For the same compound, the “mean terminal elimination half-life” value ([13]; HCV-infected subjects (n = 6)) was “approximately 41 h”, the “increase in AUC with food” value ([13]; high-fat/high-caloric breakfast) was 61% and the “AUC in subjects infected with HCV relative to uninfected subjects” value ([13]; human, in vivo) was 2–3 times. The “increase in exposure in moderate hepatic impairment” value ([13]; non-HCV-infected subjects vs matched healthy controls) was “approximately 2 fold”, the “increase in exposure in severe compared with moderate hepatic impairment” value ([13]; non-HCV-infected subjects) was “approximately 2 fold” and the “increase in AUC with food” value ([13]; normal-caloric breakfast) was 69%. For the same compound, the “time to steady state” value ([13]; once-daily dosing) was 7 days, the “time of maximum plasma concentration (Cmax) postdose” value ([13]; oral) was 4 to 6 h and the “dose proportionality of Cmax and AUC” value ([13]; repeated doses between 75 mg and 200 mg daily) was “more than dose proportionally”. The “mean terminal elimination half-life” value ([13]; subjects without HCV infection) was 10 to 13 h, the “increase in AUC24h in severe renal impairment” value [13, 23] was 62% and the “increase in Cmax in severe renal impairment” value [13, 23] was 34%. The “inhibition of P-gp” value (P-gp [14]) was “inhibitor”, the “substrate of BCRP” value [15] was “substrate” and the “inhibition of CYP2D6” value (CYP2D6) was “moderate inhibitor”. The “hepatic uptake by OATP1B1” value (OATP1B1 [16]) was “mediate hepatic uptake”.
For `CC(C)OC(=O)[C@H](C)N[P@](=O)(OC[C@H]1O[C@@H](n2ccc(=O)[nH]c2=O)[C@](C)(F)[C@@H]1O)Oc1ccccc1` [sofosbuvir], the “conversion to metabolite GS-331007” value [17] is listed as greater than 90%.
